# Active and inactive are the calls of the source.
# Experiments:
# [1] = biological target: T1, RNA-binding protein pos-1 (Caenorhabditis elegans, UniProt G5EF15); assay: inhibitors of POS-1/mex-3 RNA binding, dose response, biochemical, fluorescence polarization (AID 1964);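 also: purified POS-1 fused to maltose binding protein made in E. coli; potency of compounds blocking POS-1 binding to fluorescent RNA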
# T1 sequence (G5EF15 whole entry): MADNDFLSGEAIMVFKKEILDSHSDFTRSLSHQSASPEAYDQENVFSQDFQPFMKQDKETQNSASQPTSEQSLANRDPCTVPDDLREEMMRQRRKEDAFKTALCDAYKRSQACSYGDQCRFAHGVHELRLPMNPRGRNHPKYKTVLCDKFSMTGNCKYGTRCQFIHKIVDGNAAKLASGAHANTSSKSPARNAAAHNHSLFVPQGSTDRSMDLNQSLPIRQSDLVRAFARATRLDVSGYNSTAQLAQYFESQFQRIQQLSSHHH
# [2] = biological target: T2, Zinc finger protein mex-5 (Caenorhabditis elegans, UniProt Q9XUB2); assay: MEX-5/TCR-2 RNA interaction inhibitors, dose response, biochemical, C. elegans, fluorescence polarization (AID 1960)
# T2 sequence (Q9XUB2 whole entry): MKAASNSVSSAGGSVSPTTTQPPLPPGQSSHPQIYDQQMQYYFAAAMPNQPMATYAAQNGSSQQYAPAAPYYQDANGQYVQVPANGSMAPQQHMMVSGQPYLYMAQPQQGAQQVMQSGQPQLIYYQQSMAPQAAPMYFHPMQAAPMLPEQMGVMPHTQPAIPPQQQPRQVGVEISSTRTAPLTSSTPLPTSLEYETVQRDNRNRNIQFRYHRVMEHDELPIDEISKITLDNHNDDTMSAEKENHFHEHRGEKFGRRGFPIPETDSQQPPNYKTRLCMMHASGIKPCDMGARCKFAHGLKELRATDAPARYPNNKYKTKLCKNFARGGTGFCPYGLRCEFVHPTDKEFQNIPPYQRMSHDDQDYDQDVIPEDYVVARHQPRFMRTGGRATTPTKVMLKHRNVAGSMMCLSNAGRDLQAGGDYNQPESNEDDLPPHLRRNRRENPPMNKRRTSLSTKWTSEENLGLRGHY
# cells = assay type: functional
# Cytochrome P450 2C9 = Cytochrome P450 2C9 (Homo sapiens, UniProt P11712)
# Chain of Cytochrome P450 2C9 (P11712 whole entry): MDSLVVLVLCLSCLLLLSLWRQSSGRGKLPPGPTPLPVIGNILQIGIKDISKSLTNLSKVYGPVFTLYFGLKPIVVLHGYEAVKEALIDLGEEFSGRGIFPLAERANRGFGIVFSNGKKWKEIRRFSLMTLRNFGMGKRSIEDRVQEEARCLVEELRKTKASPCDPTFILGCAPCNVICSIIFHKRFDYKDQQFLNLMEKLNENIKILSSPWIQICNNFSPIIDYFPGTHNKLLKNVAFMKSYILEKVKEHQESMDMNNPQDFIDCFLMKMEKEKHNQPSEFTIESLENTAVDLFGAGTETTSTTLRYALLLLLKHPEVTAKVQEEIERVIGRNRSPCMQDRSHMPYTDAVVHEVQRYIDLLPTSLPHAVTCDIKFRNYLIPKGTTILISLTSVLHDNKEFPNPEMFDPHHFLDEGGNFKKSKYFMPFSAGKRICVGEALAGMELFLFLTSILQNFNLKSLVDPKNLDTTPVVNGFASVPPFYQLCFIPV
# [3] = inhibitors of firefly luciferase expression or activity, dose response, H4 neuroglioma cells, luminescence (AID 1990); assay type: functional, cell-based
# [4] = Luminescence Cell-Based Dose Response HTS to Identify Inhibitors of 5'UTR Stem-Loop Driven Prion Protein mRNA Translation in H4 Neuroglioblastoma Cells. [Related pubchem assays: 1827 (Project Summary), 1813 (Primary HTS)]; assay type: functional
# [5] = inhibitors of SNCA 5'UTR-driven reporter translation, confirmation, H4 neuroglioma cells, luminescence (AID 1988); assay type: functional, cell-based
# Cytochrome P450 3A4 = Cytochrome P450 3A4 (Homo sapiens, UniProt P08684);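 also: CYP3A4 tested as one member of a cytochrome P450 panel screen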
# Chain of Cytochrome P450 3A4 (P08684 whole entry): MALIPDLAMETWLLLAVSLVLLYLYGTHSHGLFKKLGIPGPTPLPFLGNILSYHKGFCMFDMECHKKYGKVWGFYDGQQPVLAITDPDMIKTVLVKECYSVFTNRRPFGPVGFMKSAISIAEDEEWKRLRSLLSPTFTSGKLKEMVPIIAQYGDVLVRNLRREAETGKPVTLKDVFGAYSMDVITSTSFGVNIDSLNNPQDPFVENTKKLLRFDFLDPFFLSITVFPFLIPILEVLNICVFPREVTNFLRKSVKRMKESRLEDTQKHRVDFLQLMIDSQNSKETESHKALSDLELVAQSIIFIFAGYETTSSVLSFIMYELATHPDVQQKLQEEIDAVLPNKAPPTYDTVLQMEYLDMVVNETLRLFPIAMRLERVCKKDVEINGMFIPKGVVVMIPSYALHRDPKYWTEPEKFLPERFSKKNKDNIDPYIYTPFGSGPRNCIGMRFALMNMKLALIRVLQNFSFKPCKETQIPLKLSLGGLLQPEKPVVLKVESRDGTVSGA
# Cytochrome P450 2C19 = Cytochrome P450 2C19 (Homo sapiens, UniProt P33261); assay: Cytochrome panel assay with activity outcomes. Panel member name: p450-cyp2c19 Compounds with AC50 equal or less than 10 uM are considered active; assay type: functional; conditions: read-out: AC50
# Chain of Cytochrome P450 2C19 (P33261 whole entry): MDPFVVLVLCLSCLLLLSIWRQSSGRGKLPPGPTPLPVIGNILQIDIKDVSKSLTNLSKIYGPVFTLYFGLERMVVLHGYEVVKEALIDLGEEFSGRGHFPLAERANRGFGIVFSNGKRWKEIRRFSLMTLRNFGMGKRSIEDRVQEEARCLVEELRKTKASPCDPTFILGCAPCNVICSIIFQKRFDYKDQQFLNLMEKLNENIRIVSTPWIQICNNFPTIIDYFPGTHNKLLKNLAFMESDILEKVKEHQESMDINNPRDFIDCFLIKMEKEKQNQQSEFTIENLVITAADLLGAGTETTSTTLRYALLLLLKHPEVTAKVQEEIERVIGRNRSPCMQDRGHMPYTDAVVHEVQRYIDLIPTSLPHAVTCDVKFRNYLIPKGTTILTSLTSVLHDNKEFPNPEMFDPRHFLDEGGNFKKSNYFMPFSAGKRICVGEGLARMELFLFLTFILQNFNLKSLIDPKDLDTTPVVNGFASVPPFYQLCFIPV
# [6] = biological target: T3, Heat shock factor protein 1 (Mus musculus, UniProt P38532); assay: inhibition of MG132-induced HSE-luciferase signal, confirmation, cell-based, NIH3T3, luminescence, dose retest (AID 2382); assay type: functional;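 also: NIH3T3 fibroblasts with HSF1-driven luciferase reporter stressed by proteasome inhibitor MG132; luminescence from HSF1-driven luciferase expression after 8 hours of MG132 stress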
# T3 sequence (P38532 whole entry): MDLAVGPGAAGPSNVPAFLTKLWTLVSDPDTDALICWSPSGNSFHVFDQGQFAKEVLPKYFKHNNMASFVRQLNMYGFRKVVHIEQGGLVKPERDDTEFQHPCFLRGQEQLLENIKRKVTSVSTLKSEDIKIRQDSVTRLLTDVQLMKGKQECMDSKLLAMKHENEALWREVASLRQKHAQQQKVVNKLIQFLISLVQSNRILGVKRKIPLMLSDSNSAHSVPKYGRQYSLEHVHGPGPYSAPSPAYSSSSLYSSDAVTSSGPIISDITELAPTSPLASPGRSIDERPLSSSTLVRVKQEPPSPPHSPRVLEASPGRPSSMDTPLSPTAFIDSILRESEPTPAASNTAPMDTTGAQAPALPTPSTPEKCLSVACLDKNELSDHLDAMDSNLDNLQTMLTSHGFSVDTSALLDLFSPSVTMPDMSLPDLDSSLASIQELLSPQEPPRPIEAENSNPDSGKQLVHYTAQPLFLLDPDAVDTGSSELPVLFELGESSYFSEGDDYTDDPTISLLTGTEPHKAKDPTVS
# Cytochrome P450 2D6 = Cytochrome P450 2D6 (Homo sapiens, UniProt P10635);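 also: CYP2D6 member of a cytochrome P450 panel assay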
# Chain of Cytochrome P450 2D6 (P10635 whole entry): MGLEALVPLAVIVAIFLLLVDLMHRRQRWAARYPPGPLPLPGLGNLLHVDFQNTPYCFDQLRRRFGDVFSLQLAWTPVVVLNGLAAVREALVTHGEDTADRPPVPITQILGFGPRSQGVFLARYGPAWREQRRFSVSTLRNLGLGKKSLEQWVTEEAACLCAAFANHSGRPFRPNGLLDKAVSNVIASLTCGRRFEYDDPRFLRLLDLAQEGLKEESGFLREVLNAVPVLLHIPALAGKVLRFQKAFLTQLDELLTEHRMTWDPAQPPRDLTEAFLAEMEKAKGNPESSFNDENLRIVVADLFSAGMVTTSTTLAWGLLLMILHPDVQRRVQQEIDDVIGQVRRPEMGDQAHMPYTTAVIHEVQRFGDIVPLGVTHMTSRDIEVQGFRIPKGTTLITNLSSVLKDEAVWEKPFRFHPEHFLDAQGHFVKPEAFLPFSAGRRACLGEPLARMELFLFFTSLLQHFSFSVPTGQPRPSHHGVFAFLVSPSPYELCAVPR
compound,measurement,setting,value
Cc1ccccc1C1=N/C(=C/c2cccs2)C(=O)O1,EC50,[1],> 300 µM (not active)
same,EC50,[2],39.1 µM (active)
COC(=O)C1=C(N)OC2=C(C(=O)CC(C)(C)C2)C1c1cccnc1 (stereo not drawn),IC50,cells,> 50 µM (active)
COc1ccc(NC(=O)c2ccc(C(=O)c3cc(OC)ccc3OC)cc2)cc1,AC50,Cytochrome P450 2C9,22.4 µM (inconclusive)
COC(=O)c1nn(-c2ccccc2)c(-c2ccccc2)c1C(=O)c1ccccc1,EC50,[3],> 120 µM (not active)
same,EC50,[4],> 120 µM (not active)
same,EC50,[5],> 120 µM (not active)
same,AC50,Cytochrome P450 3A4,14.1 µM (inconclusive)
same,AC50,Cytochrome P450 2C9,15.8 µM (inconclusive)
Fc1ccc([C@H]2CCNC[C@H]2COc2ccc3c(c2)OCO3)cc1,AC50,Cytochrome P450 2C9,2 µM (inconclusive)
Cc1ccc(O)c(-c2cc(C(F)(F)C(F)F)nc(-c3ccccc3)n2)c1,AC50,Cytochrome P450 2C19,14.1 µM (inconclusive)
same,AC50,Cytochrome P450 3A4,8.91 µM (inconclusive)
same,AC50,Cytochrome P450 2C9,7.08 µM (inconclusive)
CCC(NC(C)c1ccccc1)=C1C(=O)NC(=O)NC1=O (stereo not drawn),EC50,[3],18 µM (active)
same,EC50,[4],> 120 µM (not active)
same,EC50,[5],18.2 µM (active)
N#CC1=C(N)Oc2cc(N)ccc2C1c1ccccc1Cl (stereo not drawn),EC50,[6],> 195 µM (not active)
CSc1ccc(CN(C)Cc2cc(=O)oc3c(C)c(C)ccc23)cc1,EC50,[6],> 195 µM (not active)
O=C(Nc1cccc2ncccc12)c1ccc(-c2ccc(Br)cc2)o1,AC50,Cytochrome P450 2D6,12.6 µM (inconclusive)
same,AC50,Cytochrome P450 2C9,0.282 µM (inconclusive)
C=CCNC(=S)NNC(=O)c1cc(-c2cccnc2)nc2ccccc12,EC50,[6],> 195 µM (not active)
Cc1ccc(NC(=O)/C(=C\c2cccnc2)NC(=O)c2ccco2)cc1,AC50,Cytochrome P450 2C19,35.5 µM (inconclusive)
same,AC50,Cytochrome P450 2C9,20 µM (inconclusive)
CCN(CC)CCN/C=C1\C(=O)NC(=O)N(CCc2ccccc2)C1=O,EC50,[1],> 300 µM (not active)
same,EC50,[2],> 300 µM (not active)
CCN1C(=O)NC(=O)/C(=C\c2cn(CC(=O)O)c3ccccc23)C1=O,EC50,[1],> 300 µM (not active)
same,EC50,[2],> 300 µM (not active)
O=C1c2ccc3c4c(ccc(c24)C(=O)N1c1ccc2ccccc2c1)CC3,EC50,[3],11.6 µM (active)
same,EC50,[4],36.6 µM (active)
same,EC50,[5],119 µM (active)
same,AC50,Cytochrome P450 2C19,2.24 µM (inconclusive)
same,AC50,Cytochrome P450 2C9,3.98 µM (inconclusive)
CC(C)CC(=O)Nc1c2c(nn1-c1ccc(F)cc1)C[S+]([O-])C2 (stereo not drawn),EC50,[6],> 195 µM (not active)
